According to patent US9388148B2, “Acylaminocycloalkyl compounds suitable for treating disorders that respond to modulation of dopamine D3 receptor” (AbbVie Deutschland GmbH & Co. KG, priority 2013, dated 2016):

Key:
[1] = target: T1, human dopamine D2L receptors (long isoform) (Homo sapiens, UniProt P14416); assay: Dopamine D2L receptor binding ([125I]iodospiperone displacement); conditions: selectivity ratio, human D2L vs human D3 binding
T1 construct: expressed in transfected cells; host or cells: HEK-293
Description: The substance to be tested was either dissolved in methanol/Chremophor® (BASF SE) or in dimethyl sulfoxide and then diluted with water to the desired concentration.
Each assay mixture was run in triplicate. • The incubation buffer contained 50 mM tris, 120 mM NaCl, 5 mM KCl, 2 mM CaCl2, 2 mM MgCl2 and 0.1% bovine serum albumin, 10 μM quinolone and 0.1% ascorbic acid (prepared fresh daily). […] Each assay mixture was run in triplicate. • The incubation buffer contained 50 mM tris, 120 mM NaCl, 5 mM KCl, 2 mM CaCl2, 2 mM MgCl2 and 0.1% bovine serum albumin. The buffer was adjusted to pH 7.4 with HCl. c) Measurement and analysis: • After having been incubated at 25° C. for 60 minutes, the assay mixtures were filtered through a Whatman GF/B glass fiber filter under vacuum using a cell col-lecting device. The filters were transferred to scintillation viols using a filter transfer system. After 4 ml of Ultima Gold® (Packard) have been added, the samples were shaken for one hour and the radioactivity was then counted in a Beta-Counter (Packard, Tricarb 2000 or 2200CA).

[2] = Determination of the microsomal half-life / microsomal clearance; assay type: in vitro ADME; conditions: pH 7.4; human liver microsomes, 0.5 μM test substance, 0.25 mg protein/ml, NADPH, 37° C.; read-out: Human mCl (mikrosomal clearance)
Description: The metabolic stability of the compounds of the invention was determined in the following assay.
The test substances were incubated in a concentration of 0.5 μM as follows:
0.5 μM test substance are preincubated together with liver microsomes from different species (from rat, human or other species) (0.25 mg of microsomal protein/ml) in 0.05 M potassium phosphate buffer of pH 7.4 in microtiter plates at 37° C. for 5 min. The reaction is started by adding NADPH (1 mg/mL). After 0, 5, 10, 15, 20 and 30 min, 50 μl aliquots are removed, and the reaction is immediately stopped and cooled with the same volume of acetonitrile. The samples are frozen until analyzed. The remaining concentration of undegraded test substance is determined by MSMS. The half-life (T1/2) is determined from the gradient of the signal of test substance/unit time plot, it being possible to calculate the half-life of the test substance, assuming first order kinetics, from the decrease in the concentration of the compound with time. The microsomal clearance (mC1) is calculated from mC1=1n2/T1/2/(content of microsomal protein in mg/ml)×1000 [ml/min/mg] (modified from references: Di, The Society for Biomoleculur Screening, 2003, 453-462; Obach, DMD, 1999 vol 27. N 11, 1350-1359).

T1 sequence (P14416 whole entry, canonical isoform): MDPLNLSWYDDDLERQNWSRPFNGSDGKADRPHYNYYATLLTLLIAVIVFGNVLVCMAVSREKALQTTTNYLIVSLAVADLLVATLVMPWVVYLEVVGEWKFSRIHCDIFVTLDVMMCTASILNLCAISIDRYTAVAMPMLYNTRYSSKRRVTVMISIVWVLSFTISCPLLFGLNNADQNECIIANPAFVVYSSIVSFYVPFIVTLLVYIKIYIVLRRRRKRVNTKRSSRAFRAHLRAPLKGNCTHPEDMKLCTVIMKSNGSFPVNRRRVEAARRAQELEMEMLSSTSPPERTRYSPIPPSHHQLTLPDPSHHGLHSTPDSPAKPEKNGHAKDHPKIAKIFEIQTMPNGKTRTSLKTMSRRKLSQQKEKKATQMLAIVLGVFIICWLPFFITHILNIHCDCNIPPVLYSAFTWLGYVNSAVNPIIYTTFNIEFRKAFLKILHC

| SMILES | D2/D3, Ki (D2L)/Ki (D3) [1] | microsomal CLint at 0.5 μM [2] [µL/min/mg] |
| --- | --- | --- |
| COCCc1cc(N2CCN(CC[C@H]3C[C@H](NC(=O)C4CCC(O)CC4)C3)CC2)nc(C(C)(C)C)n1 (relative stereo) [Compound 11, N-[trans-3-[2-[4-[2-tert-butyl-6-(2-methoxyethyl)pyrimidin-4-yl]piperazin-1-yl]ethyl]cyclobutyl]-4-hydroxy-cyclohexanecarboxamide] | ++ (++ >20) | 20 to 120 |
| CC(C)(C)c1nc(C2CCC2)cc(N2CCN(CC[C@H]3CC[C@H](NC(=O)C4CC(O)(C(F)(F)F)C4)CC3)CC2)n1 (relative stereo) [Compound 19, N-[trans-4-[2-[4-(2-tert-butyl-6-cyclobutyl-pyrimidin-4-yl)piperazin-1-yl]ethyl]cyclohexyl]-3-hydroxy-3-(trifluoromethyl)cyclobutanecarboxamide] | + (+ >10) | 20 to 120 |
| CC(C)(C)c1nc(C2CCC2)cc(N2CCN(CC[C@H]3CC[C@H](NC(=O)[C@H]4CC[C@H](O)CC4)CC3)CC2)n1 [Compound 1, trans-N-[trans-4-[2-[4-(2-tert-butyl-6-cyclobutyl-pyrimidin-4-yl)piperazin-1-yl]ethyl]cyclohexyl]-4-hydroxy-cyclohexanecarboxamide] | +++ (+++ >50) | 20 to 120 |
| COCCc1cc(N2CCN(CC[C@H]3CC[C@H](NC(=O)[C@H]4CC[C@H](O)CC4)CC3)CC2)nc(C(C)(C)C)n1 [Compound 2, trans-N-[trans-4-[2-[4-[2-tert-butyl-6-(2-methoxyethyl)pyrimidin-4-yl]piperazin-1-yl]ethyl]cyclohexyl]-4-hydroxy-cyclohexanecarboxamide] | ++ (++ >20) | 20 to 120 |
| COCCc1cc(N2CCN(CC[C@H]3CC[C@H](NC(=O)[C@H]4CC[C@@H](O)CC4)CC3)CC2)nc(C(C)(C)C)n1 [Compound 4, cis-N-[trans-4-[2-[4-[2-tert-butyl-6-(2-methoxyethyl)pyrimidin-4-yl]piperazin-1-yl]ethyl]cyclohexyl]-4-hydroxy-cyclohexanecarboxamide] | ++ (++ >20) | > 120 |
| COCCc1cc(N2CCN(CC[C@H]3CC[C@@H](NC(=O)[C@H]4CC[C@@H](O)CC4)CC3)CC2)nc(C(C)(C)C)n1 [Compound 5, Cis-N-[cis-4-[2-[4-[2-tert-butyl-6-(2-methoxyethyl)pyrimidin-4-yl]piperazin-1-yl]ethyl]cyclohexyl]-4-hydroxy-cyclohexanecarboxamide] | ++ (++ >20) | > 120 |
| CC(C)(C)c1nc(C2CCC2)cc(N2CCN(CC[C@H]3CC[C@@H](NC(=O)[C@H]4CC[C@H](O)CC4)CC3)CC2)n1 [Compound 6, trans-N-[cis-4-[2-[4-(2-tert-butyl-6-cyclobutyl-pyrimidin-4-yl)piperazin-1-yl]ethyl]cyclohexyl]-4-hydroxy-cyclohexanecarboxamide] | +++ (+++ >50) | 20 to 120 |
| CC(C)(C)c1nc(C2CCC2)cc(N2CCN(CC[C@H]3C[C@H](NC(=O)[C@H]4CC[C@H](O)CC4)C3)CC2)n1 [Compound 9, Trans-N-[trans-3-[2-[4-(2-tert-butyl-6-cyclobutyl-pyrimidin-4-yl)piperazin-1-yl]ethyl]cyclobutyl]-4-hydroxy-cyclohexanecarboxamide] | +++ (+++ >50) | 20 to 120 |
| CC(C)(C)c1nc(C2CCC2)cc(N2CCN(CC[C@H]3C[C@@H](NC(=O)[C@H]4CC[C@H](O)CC4)C3)CC2)n1 [Compound 10, Trans-N-[cis-3-[2-[4-(2-tert-butyl-6-cyclobutyl-pyrimidin-4-yl)piperazin-1-yl]ethyl]cyclobutyl]-4-hydroxy-cyclohexanecarboxamide] | +++ (+++ >50) | 20 to 120 |
| CC(C)(C)c1nc(C2CCC2)cc(N2CCN(CC[C@H]3CC[C@H](NC(=O)[C@H]4C[C@@H](O)C4)CC3)CC2)n1 [Compound 13, Cis-N-[trans-4-[2-[4-(2-tert-butyl-6-cyclobutyl-pyrimidin-4-yl)piperazin-1-yl]ethyl]cyclohexyl]-3-hydroxy-cyclobutanecarboxamide] | ++ (++ >20) | > 120 |
| CC(C)(C)c1nc(C2CCC2)cc(N2CCN(CC[C@H]3CC[C@@H](NC(=O)[C@H]4CC[C@@H](O)CC4)CC3)CC2)n1.O=C(O)C(F)(F)F [Compound 15, Cis-N-[cis-4-[2-[4-(2-tert-butyl-6-cyclobutyl-pyrimidin-4-yl)piperazin-1-yl]ethyl]cyclohexyl]-4-hydroxy-cyclohexanecarboxamide; 2,2,2-trifluoroacetic acid] | +++ (+++ >50) | > 120 |
| COCc1cc(N2CCN(CC[C@H]3CC[C@H](NC(=O)[C@H]4C[C@@H](O)C4)CC3)CC2)nc(C(C)(C)C)n1 [Compound 40, cis-N-[trans-4-[2-[4-[2-tert-butyl-6-(methoxymethyl)pyrimidin-4-yl]piperazin-1-yl]ethyl]cyclohexyl]-3-hydroxy-cyclobutanecarboxamide] | – | 20 to 120 |

The remaining lines, values ahead:

| D2/D3, Ki (D2L)/Ki (D3) [1] | microsomal CLint at 0.5 μM [2] [µL/min/mg] | SMILES |
| --- | --- | --- |
| ++ (++ >20) | > 120 | COCCc1cc(N2CCN(CC[C@H]3CC[C@H](NC(=O)C4CC(O)(C(F)(F)F)C4)CC3)CC2)nc(C(C)(C)C)n1 (relative stereo) [Compound 25, N-[trans-4-[2-[4-[2-tert-butyl-6-(2-methoxyethyl)pyrimidin-4-yl]piperazin-1-yl]ethyl]cyclohexyl]-3-hydroxy-3-(trifluoromethyl)cyclobutanecarboxamide] |
| +++ (+++ >50) | < 20 | COCCc1cc(N2CCN(CC[C@H]3CC[C@@H](NC(=O)C4CC(O)(C(F)(F)F)C4)CC3)CC2)nc(C(C)(C)C)n1 (relative stereo) [Compound 26, N-[cis-4-[2-[4-[2-tert-butyl-6-(2-methoxyethyl)pyrimidin-4-yl]piperazin-1-yl]ethyl]cyclohexyl]-3-hydroxy-3-(trifluoromethyl)cyclobutanecarboxamide] |
| ++ (++ >20) | 20 to 120 | COCCc1cc(N2CCN(CC[C@H]3CC[C@@H](NC(=O)[C@H]4CC[C@H](O)CC4)CC3)CC2)nc(C(C)(C)C)n1 [Compound 3, trans-N-[cis-4-[2-[4-[2-tert-butyl-6-(2-methoxyethyl)pyrimidin-4-yl]piperazin-1-yl]ethyl]cyclohexyl]-4-hydroxy-cyclohexanecarboxamide] |
| +++ (+++ >50) | 20 to 120 | COCCc1cc(N2CCN(CC[C@H]3C[C@H](NC(=O)[C@H]4CC[C@H](O)CC4)C3)CC2)nc(C(C)(C)C)n1.O=C(O)C(F)(F)F [Compound 7, Trans-N-[trans-3-[2-[4-[2-tert-butyl-6-(2-methoxyethyl)pyrimidin-4-yl]piperazin-1-yl]ethyl]cyclobutyl]-4-hydroxy-cyclohexanecarboxamide; 2,2,2-trifluoroacetic acid] |
| +++ (+++ >50) | 20 to 120 | COCCc1cc(N2CCN(CC[C@H]3C[C@@H](NC(=O)[C@H]4CC[C@H](O)CC4)C3)CC2)nc(C(C)(C)C)n1.O=C(O)C(F)(F)F [Compound 8, trans-N-[cis-3-[2-[4-[2-tert-butyl-6-(2-methoxyethyl)pyrimidin-4-yl]piperazin-1-yl]ethyl]cyclobutyl]-4-hydroxy-cyclohexanecarboxamide; 2,2,2-trifluoroacetic acid] |
| +++ (+++ >50) | 20 to 120 | COCCc1cc(N2CCN(CC[C@H]3C[C@@H](NC(=O)[C@H]4CC[C@@H](O)CC4)C3)CC2)nc(C(C)(C)C)n1 [Compound 12, Cis-N-[cis-3-[2-[4-[2-tert-butyl-6-(2-methoxyethyl)pyrimidin-4-yl]piperazin-1-yl]ethyl]cyclobutyl]-4-hydroxy-cyclohexanecarboxamide] |
| ++ (++ >20) | > 120 | CC(C)(C)c1nc(C2CCC2)cc(N2CCN(CC[C@H]3CC[C@H](NC(=O)[C@H]4CC[C@@H](O)CC4)CC3)CC2)n1.O=C(O)C(F)(F)F [Compound 14, Cis-N-[trans-4-[2-[4-(2-tert-butyl-6-cyclobutyl-pyrimidin-4-yl)piperazin-1-yl]ethyl]cyclohexyl]-4-hydroxy-cyclohexanecarboxamide; 2,2,2-trifluoroacetic acid] |
